Square brackets hold non-standard residues; d marks the D form. Ends that are not written are not given here. Peptide text beside a SMILES is read from it. NMeY = CN[C@@H](Cc1ccc(O)cc1)C(=O)O; Nle = CCCC[C@H](N)C(=O)O
Each compound was assayed on cells of rat pituitary glands (assay: in vitro assay of growth hormone release from cultured rat pituitary cells, GH measured by radioimmunoassay). Settings: release of GH at equimolar concentrations, side-by-side with synthetic hpGRF(1-40)-OH standard = 100%; incubation 3 to 4 hours.
Assay type: cell-based
Description: To determine the relative effectiveness of certain representative synthetic peptides to promote the release of growth hormone, in vitro assays are carried out using synthetic hpGRF(1-40)-OH as a standard in side-by-side comparison with equimolar concentrations of the representative analogs which have been synthesized. Cultures are used which include cells of rat pituitary glands removed some three to five days previously. Such cultures are considered optimal for the secretion of growth hormone and are used for the comparative testing, in the general manner described in Vale et al. Endocrinoloqy, 91, 562-572 (1972) and as more particularly described in Vale et al. Endocrinology, 112, 1553-1555 (1983). Incubation with the substance to be tested is carried out for 3 to 4 hours, and aliquots of the culture medium are removed and processed to measure their contents in immunoreactive GH(ir GH) by a well-characterized radioimmunoassay.

| Compound | Comparison % |
| --- | --- |
| CCCC[C@H](NC(=O)[C@@H](NC(=O)[C@H](CC(=O)O)NC(=O)[C@H](CCC(N)=O)NC(=O)[C@H](CC(C)C)NC(=O)[C@H](CC(C)C)NC(=O)[C@H](CCCCN)NC(=O)[C@H](CCCNC(=N)N)NC(=O)[C@H](C)NC(=O)[C@H](CO)NC(=O)[C@H](CC(C)C)NC(=O)[C@H](CCC(N)=O)NC(=O)[C@H](C)NC(=O)[C@H](CC(C)C)NC(=O)[C@@H](NC(=O)[C@H](CCCCN)NC(=O)[C@H](CCCNC(=N)N)NC(=O)[C@H](Cc1ccc(O)cc1)NC(=O)[C@H](CO)NC(=O)[C@H](CC(=O)O)NC(=O)[C@@H](NC(=O)[C@H](Cc1ccccc1)NC(=O)[C@@H](NC(=O)[C@H](C)NC(=O)[C@H](CC(=O)O)NC(=O)[C@H](C)NC(=O)[C@H](Cc1ccc(O)cc1)NC)[C@@H](C)CC)[C@@H](C)O)C(C)C)[C@@H](C)CC)C(=O)N[C@@H](CC(N)=O)C(=O)N[C@@H](CCCNC(=N)N)C(N)=O [[N^a MeTyr^1, Asp^8, Ala^15, Nle^27, Asn^28]-hGRF(1-29)-NH2] (H-[NMeY]ADAIFTDSYRKVLAQLSARKLLQDI[Nle]NR-NH2) | 192% |
| CCCC[C@H](NC(=O)[C@@H](NC(=O)[C@H](CC(=O)O)NC(=O)[C@H](CCC(N)=O)NC(=O)[C@H](CC(C)C)NC(=O)[C@H](CC(C)C)NC(=O)[C@@H](CCCCN)NC(=O)[C@H](CCCNC(=N)N)NC(=O)[C@H](C)NC(=O)[C@H](CO)NC(=O)[C@H](CC(C)C)NC(=O)[C@H](CCC(N)=O)NC(=O)CNC(=O)[C@H](CC(C)C)NC(=O)[C@@H](NC(=O)[C@H](CCCCN)NC(=O)[C@H](CCCNC(=N)N)NC(=O)[C@H](Cc1ccc(O)cc1)NC(=O)[C@H](CO)NC(=O)[C@H](CC(N)=O)NC(=O)[C@@H](NC(=O)[C@H](Cc1ccccc1)NC(=O)[C@@H](NC(=O)[C@H](C)NC(=O)[C@H](CC(=O)O)NC(=O)[C@H](C)NC(=O)[C@H](Cc1ccc(O)cc1)NC)[C@@H](C)CC)[C@@H](C)O)C(C)C)[C@@H](C)CC)C(=O)N[C@@H](CO)C(=O)N[C@@H](CCCNC(=N)N)C(N)=O [[N^a MeTyr^1, D-Lys^21, Nle^27]-hGRF(1-29)-NH] | 172% |
| CCCC[C@H](NC(=O)[C@@H](NC(=O)[C@H](CC(=O)O)NC(=O)[C@H](CCC(N)=O)NC(=O)[C@H](CC(C)C)NC(=O)[C@H](CC(C)C)NC(=O)[C@@H](CCCCN)NC(=O)[C@H](CCCNC(=N)N)NC(=O)[C@H](C)NC(=O)[C@H](CO)NC(=O)[C@H](CC(C)C)NC(=O)[C@H](CCC(N)=O)NC(=O)CNC(=O)[C@H](CC(C)C)NC(=O)[C@@H](NC(=O)[C@H](CCCCN)NC(=O)[C@H](CCCNC(=N)N)NC(=O)[C@@H](Cc1ccc(O)cc1)NC(=O)[C@H](CO)NC(=O)[C@H](CC(N)=O)NC(=O)[C@@H](NC(=O)[C@H](Cc1ccccc1)NC(=O)[C@@H](NC(=O)[C@H](C)NC(=O)[C@H](CC(=O)O)NC(=O)[C@H](C)NC(=O)[C@H](Cc1ccc(O)cc1)NC)[C@@H](C)CC)[C@@H](C)O)C(C)C)[C@@H](C)CC)C(=O)N[C@@H](CO)C(=O)N[C@@H](CCCNC(=N)N)C(N)=O [[N^a MeTyr^1, D-Tyr^10, D-Lys^21, Nle^27]-hGRF(1-29)-NH2] | 40% |
| CCCC[C@H](NC(=O)[C@@H](NC(=O)[C@H](CC(=O)O)NC(=O)[C@H](CCC(N)=O)NC(=O)[C@H](CC(C)C)NC(=O)[C@H](CC(C)C)NC(=O)[C@H](CCCCN)NC(=O)[C@H](CCCNC(=N)N)NC(=O)[C@H](C)NC(=O)[C@H](CO)NC(=O)[C@H](CC(C)C)NC(=O)[C@H](CCC(N)=O)NC(=O)[C@H](C)NC(=O)[C@H](CC(C)C)NC(=O)[C@@H](NC(=O)[C@H](CCCCN)NC(=O)[C@H](CCCNC(=N)N)NC(=O)[C@H](Cc1ccc(O)cc1)NC(=O)[C@H](CO)NC(=O)[C@H](CCCCN)NC(=O)[C@@H](NC(=O)[C@H](Cc1ccccc1)NC(=O)[C@@H](NC(=O)[C@H](C)NC(=O)[C@H](CC(=O)O)NC(=O)[C@H](C)NC(=O)[C@H](Cc1ccc(O)cc1)NC)[C@@H](C)CC)[C@@H](C)O)C(C)C)[C@@H](C)CC)C(=O)N[C@@H](CC(N)=O)C(=O)N[C@@H](CCCNC(=N)N)C(N)=O [[N^a MeTyr^1, Lys^8, Ala^15, Nle^27, Asn^28]-hGRF(1-29)-NH2] (H-[NMeY]ADAIFTKSYRKVLAQLSARKLLQDI[Nle]NR-NH2) | 556% |
| hGRF(1-40)-OH (YADAIFTNSYRKVLGQLSARKLLQDIMSRQQGESNQERGA-OH; UniProt P01286 32-71, looked up, fragment) [synthetic human pancreatic (tumor) GH releasing factor 1-40 free acid, used as standard in the assays, reference compound] | 100% |
